The test system of series [1] is Rattus norvegicus. As to the kind of experiment: In vivo agonist activity at histamine H2 receptor in anesthetized rat assessed as stimulation of gastric acid secretion at 486 uml/kg, iv. Conditions: Stomach. In kind it is functional, organism-based.
Series [2] has as its system Rattus norvegicus. As to the kind of experiment: In vivo antagonist activity at histamine H2 receptor in anesthetized rat assessed as inhibition of histamine-stimulated gastric acid secretion up to 256 umol/kg, iv. In kind it is functional, organism-based. Conditions: Stomach.
Series [3] concerns the target Histamine H1 receptor (Cavia porcellus) (UniProt P31389). As to the kind of experiment: In vitro agonist activity at histamine H1 receptor in guinea pig ileum assessed as contractile response relative to histamine in presence of atropine. In kind it is tissue-based.
Series [4] is described as follows: Retardation factor of the compound using MeOH-NH4OH-H2O at ratio of 6:1:1 as solvent system by thin layer chromatography. In kind it is physicochemical.
The test system of series [5] is Rattus norvegicus. The series is described as follows: In vivo agonist activity at histamine H2 receptor in iv dosed anesthetized rat assessed as stimulation of gastric acid secretion relative to histamine. In kind it is functional, Stomach.
Series [6] is described as follows: Retardation factor of the compound using EtOCH2CH2OH-HCl(11N)-H2O at ratio of 8:1:1 as solvent system by thin layer chromatography. In kind it is physicochemical. Conditions: buffer.

Calls of active or inactive are those of the source. No cut-off for these calls is given here.

Sequence of Histamine H1 receptor (Cavia porcellus) (P31389 whole entry): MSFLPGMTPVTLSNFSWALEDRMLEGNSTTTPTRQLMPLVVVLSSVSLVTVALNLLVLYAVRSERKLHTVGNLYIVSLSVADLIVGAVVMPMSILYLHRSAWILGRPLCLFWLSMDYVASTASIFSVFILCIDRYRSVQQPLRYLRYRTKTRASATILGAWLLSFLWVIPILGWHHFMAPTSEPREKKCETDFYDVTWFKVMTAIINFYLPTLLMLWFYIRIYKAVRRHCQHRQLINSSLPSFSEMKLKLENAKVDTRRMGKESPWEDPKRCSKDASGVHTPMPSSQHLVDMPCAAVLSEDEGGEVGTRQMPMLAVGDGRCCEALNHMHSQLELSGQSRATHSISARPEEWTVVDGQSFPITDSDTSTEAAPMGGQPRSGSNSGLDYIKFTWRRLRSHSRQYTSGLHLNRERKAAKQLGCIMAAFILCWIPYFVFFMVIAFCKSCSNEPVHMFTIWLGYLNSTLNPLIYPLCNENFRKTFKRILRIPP

As for `CC(C)(CN)c1cnc[nH]1`, the result in series [1] and in series [2] was inactive. Further, the Activity in series [3] is less than 0.001%.

As for `CNCCc1cnc[nH]1.Cl`, the Activity in series [3] worked out at 72%; in series [5], 74%. Moreover, the Rf in series [4] is 0.46; in series [6], 0.68.

With `CN(C)CCc1cnc[nH]1.Cl`, the Activity was 44% in series [3] and 19% in series [5].

With `CNCCc1[nH]cnc1C.Cl`, the Activity in series [3] stood at 0.16%; in series [5], 8.2%. Further, the Rf was found to be 0.51 in series [4] and 0.7 in series [6].

Consider `Cl.Cn1cncc1CCN`, for which the outcome in series [2] was inactive. The Activity was less than 0.01% in series [3] and less than 0.2% in series [5]. The Rf in series [4] was 0.63; in series [6], 0.56.

For the compound `Cc1nc[nH]c1CCN.Cl`, the Activity in series [3] was found to be 0.23%; in series [5] it was 39%. For the same compound, the Rf was found to be 0.56 in series [4] and 0.7 in series [6].

As to `Cl.Cl.Cn1cnc(CCN)c1` [N-METHYLHISTAMINE DIHYDROCHLORIDE], the outcome in series [2] was inactive. The Activity in series [3] was 0.5%.

Regarding `CC(N)Cc1cnc[nH]1.Cl` (stereo not given), in series [2], the outcome was inactive. Also, the figures for the Activity in series [3] and in series [5] were 0.36% and 0.8%, respectively.

Turning to `Cc1nc[nH]c1CCN(C)C.Cl`, the figures for the Activity in series [3] and in series [5] were 0.1% and 3%, respectively. Further, the Rf is 0.72 in series [4] and 0.57 in series [6].

Consider `Cc1ncc(CCN(C)C)[nH]1.Cl`, for which the Activity turned out to be 16.8% in series [3] and 1.4% in series [5].

`NCCc1c[nH]cn1` [HISTAMINE]: the Rf in series [4] was 0.52; in series [6] it was 0.7.

As for `CC(CN)c1cnc[nH]1.Cl` (stereo not given), the result in series [2] was inactive. Moreover, the Activity was 0.83% in series [3] and 0.4% in series [5].

In the case of `Cc1ncc(CCN)[nH]1.Cl`, the Activity is 16.5% in series [3] and 2% in series [5].

Values taken from ChEMBL document CHEMBL3271981, “Potential histamine H2-receptor antagonists. 3. Methylhistamines” (J Med Chem, 1976).
